Source: patent US20050143371A1, “Beta-carboline compounds and analogues thereof as mitogen-activated protein kinase-activated protein kinase-2 inhibitors” (Pharmacia Corporation, priority 2003, published 2005)
Where “and” joins values, the source holds several entries; their conditions need not be identical. Identical values can stand only once. Counter-ions that a name gives are not always drawn. Like-named read-outs stand apart in the source and are kept apart here. Each block holds one compound with its values, some of them ahead of it.

What was measured:
Recombinant MAPKAPK2 = Recombinant MAPKAPK2 (Homo sapiens, UniProt P49137); assay: Determination of MK-2 IC50 (HSP-peptide phosphorylation, anion exchange resin capture assay)
Recombinant MAPKAPK2, sequence (P49137 whole entry, species assumed): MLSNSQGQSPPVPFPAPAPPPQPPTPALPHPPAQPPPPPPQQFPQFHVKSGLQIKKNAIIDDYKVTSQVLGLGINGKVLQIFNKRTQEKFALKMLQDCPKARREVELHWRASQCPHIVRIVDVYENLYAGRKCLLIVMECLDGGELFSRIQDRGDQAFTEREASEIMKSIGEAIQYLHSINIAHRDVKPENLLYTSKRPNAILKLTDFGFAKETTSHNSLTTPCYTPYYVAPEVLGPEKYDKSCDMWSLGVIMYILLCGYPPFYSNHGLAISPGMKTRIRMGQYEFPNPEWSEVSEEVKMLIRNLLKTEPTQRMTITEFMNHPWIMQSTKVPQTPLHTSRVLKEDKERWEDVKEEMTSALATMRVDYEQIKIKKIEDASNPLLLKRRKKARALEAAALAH
Procedure: The phosphorylation of HSP-peptide ([sequence]) by MAPKAPK2 was measured using an anion exchange resin capture assay method. […] The reaction was terminated and [γ^33P]ATP was removed from solution by the addition of 150 μl of AG 1×8 ion exchange resin in 900 mM sodium formate pH 3.0. A 50 μl aliquot of head volume was removed from the quenched reaction mixture and added to a 96-well plate, 150 μl of Microscint-40 (Packard) was added and the amount of phosphorylated-peptide was determined. Allow the Microscint to sit in the plates for 60 minutes prior to counting.
Compounds are evaluated as potential inhibitors of the MK2 kinase by measuring their effects on MK2 phosphorylation of the peptide substrate. Compounds may be screened initially at two concentrations prior to determination of IC50 values. Screening results are expressed as percent inhibition at the concentrations of compound tested. For IC50 value determinations, compounds are tested at six concentrations in ten-fold serial dilutions with each concentration tested in triplicate. Results are expressed as IC50 values in micromolar. The assay is performed at a final concentration of 2% DMSO.

TNFα release, U937 cells = assay: U937 Cell TNFα Release Assay (LPS-stimulated, TNFα ELISA); type: cell-based, human; conditions: additional values are replicate IC50 experiments, read-out: TNF Release Assay Avg. IC50
Procedure: U937 Cell TNFα Release Assay
Differentiation of U937 to monocytic/macrophage-like cells is induced by the addition of phorboll2-myristate 13-acetate (Sigma) at final concentration of 20 ng/ml to a culture of U937 cells at ˜0.5 million cells/ml and incubated for 24 hrs. The cells are centrifuged, washed with PBS and resuspended in fresh media without PMA and incubated for 24 hrs. Cells adherent to the culture flask are harvested by scraping, centrifugation, and resuspended in fresh media to 2 million cells/ml, and 0.2 ml is aliquoted to each of 96 wells in flat-bottom plate. Cells are then incubated for an additional 24 hrs to allow for recovery. The media is removed from the cells, and 0.1 ml of fresh media is added per well. 0.05 ml of serially diluted compound or control vehicle (Media with DMSO) is added to the cells. […] Cells are incubated at 37° C. for 4 hrs. After 4 hrs incubation, supernatants are harvest and assayed by ELISA for the presence of TNFα.
Coating solution was aspirated the following day and wells were blocked with 1 mg/ml gelatin in PBS (plus 1×thimerasol) for 2 days at 4° C. Prior to using, wells were washed 3× with wash buffer (PBS with 0.05% Tween). Cultured media samples were diluted in EIA buffer (5 mg/ml bovine γ-globulin, 1 mg/ml gelatin, 1 ml/l Tween-20, 1 mg/ml thimerasol in PBS), added to wells (0.1 ml/well) in triplicate and allowed to incubate for 1.5 hr at 37° C. in a humidified chamber. […] After final washing, plates were developed with peroxidase-ABTS solution (Kirkegaard/Perry #50-66-01, 0.1 ml/well). […] TNF levels were quantitated from a recombinant human TNFα (R&D Systems #210-TA-010) standard curve using a quadratic parameter fit generated by SoftMaxPRO software. ELISA sensitivity was approximately 30 pg TNF/ml. IC50 values for compounds were generated using BioAssay Solver.

rat adjuvant arthritis = conditions: in vivo; cited from earlier work
[1] = system: mouse collagen-induced arthritis; conditions: in vivo; cited from earlier work
[2] = system: murine model of endotoxin-induced shock; conditions: cited from earlier work
[3] = read-out: in vitro MK-2 inhibition IC50
[4] = Homo sapiens, U-937, U937 cells

IC50 (Recombinant MAPKAPK2; [3]): < 200 µM
Compound: ON=C1CCCc2c1[nH]c1ccc(C(F)(F)F)cc21 [6-(trifluoromethyl)-2,3,4,9-tetrahydro-1H-carbazol-1-one oxime]

IC50 (Recombinant MAPKAPK2): > 200 µM
Compound: O=C1NCCc2c1[nH]c1ccc(CCc3ccccc3)cc21 [Compound 42, 6-(2-phenylethyl)-2,3,4,9-tetra-hydro-1H-beta-car-bolin-1-one]

IC50 (Recombinant MAPKAPK2; [3]): < 20 µM
Compound: COC(=O)c1cccc2c3c([nH]c12)CCNC3=O [Example 6, methyl 1-oxo-2,3,4,5-tetrahydro-1H-pyrido[4,3-b]indole-6-carboxylate]

Compound: O=C1NCCc2[nH]c3c(ccc4cnccc43)c21 [Compound 1, 8,9,10,11-tetrahydro-7H-py-rido[3′,4′:4,5]pyrrolo[2,3-f]isoquinolin-7-one trifluoroacetate]
IC50 (TNFα release, U937 cells; [4]): 0.845 µM

Compound: C[S+]([O-])c1ccc(-c2nc(-c3ccncc3)c(-c3ccc(F)cc3)[nH]2)cc1 (stereo not shown) [SB203580]
development of rat adjuvant arthritis (rat adjuvant arthritis): inhibit the development | development of mouse collagen-induced arthritis [1]: inhibit the development | mortality [2]: reduce mortality

IC50 (TNFα release, U937 cells; U937 cells): 100 µM and 95 µM
Compound: COc1ccc2[nH]c3c(c2c1)CCC(C)/C3=N/O (stereo not shown) [Compound 19, 6-methoxy-2-methyl-2,3,4,9-tetrahydro-1H-car-bazol-1-one oxime]

IC50 (TNFα release, U937 cells; [4]): 15.3 µM | IC50 (Recombinant MAPKAPK2): 7.01 µM
Compound: O/N=C1\CCCc2c1[nH]c1ccc(Br)cc21 [Compound 14]
